Data reported in patent US20160228444A1, “NUCLEOSIDE ANALOGS AND USES THEREOF” (Ramot at Tel-Aviv University Ltd., priority 2015, published 2016).
Where a name gives a salt, the structure may show the parent alone. Read-outs that look alike come from different tables or passages of the source.

How the values were obtained:
fibrous collagen = experiment: Fibrosis in tumor, heart and kidney of U251 xenograft mice (Picrosirius Red / Fast Green); type: in vivo; settings: single agent
Procedure: (§1) AN446 was tested in vivo using a xenograft of glioblastoma (U251 cells) in mice.

HO-1 = HO-1 protein and mRNA in tumor and heart of xenograft mice (Western blot, qRT-PCR); type: in vivo; settings: single agent
Procedure: (§2) Tumors and hearts of the mice were rapidly removed, frozen on dry ice and kept at −70° C. Tissue was then homogenized and RNA and proteins extracted using the NucleoSpin® RNA/Protein kit according to the manufacturer's protocol (Macherey-Nagel, GmbH & Co KG).
(§3) Total RNA ([…]) was primed by oligo dT and reverse-transcribed by Verso cDNA kit according to the manufacturer's protocol (Thermo Scientific). Analyses of qPCR were performed with Kapa Sybr® Fast (Kapa Biosystems) on a Step One Plus thermocycler (Applied Biosystems). The comparative threshold method was used to calculate the relative gene expression. Values were normalized against glyceraldehyde 3-phosphate dehydrogenase (GAPDH). Expression of the GAPDH mRNA in each individual sample was used to normalize the dataset. The sequences of the primers were as follows: […]
(§4) Protein levels in the samples were determined with the BCA protein assay kit (Pierce). The samples were subjected to Western blot analyses. The expression of proteins was visualized using their specified primary antibodies followed by the secondary IgG IRDye® 680DX antibody. Each detected band was quantified using the Odyssey Infrared Imaging System (LI-COR Biosciences) and normalized to the level of actin. The fold increase of a specific protein was determined by the ratio of the band intensity obtained from treated and untreated samples.
The effect of the drugs on the expression of genes associated with cell survival and death was examined by following changes in transcription and protein expression in tissue samples taken from the mice with glioblastoma xenografts. Heme oxygenase (HO-1) is known to play a protective role in the heart, whereas, in many cancers it is expressed and promotes growth and survival of neoplastic cells.

TNF-α = experiment: Serum TNF-α in U251 xenograft mice (ELISA); type: in vivo; settings: single agent, FIG. 8C
Procedure: as §1

c-Myc = c-Myc and p-c-Myc (Thr 58) Western blot in tumor and heart of xenograft mice; type: in vivo
Procedure: as §4
The c-Myc protein is an important regulator of normal cell physiology and in tumor cells it plays an important role in activating oncogenic pathways [Soucek & Evan, Curr Opin Genet Dev 2010, 20:91-95].

PBL = experiment: Median-effect drug interaction, MTT viability, 72 h; type: cell-based; settings: Homo sapiens
Procedure: (§5) Cell viability was determined by an MTT cell viability assay after 48 hours. MyLa cells (10^4 cells/well), Hut78 cells (5×10^3 cells/well) and normal PBLs (10^5 cells/well) were seeded in 96 well-plates. The PBLs were activated with 40 μg/10^6 cells of phytohemagglutinine (PHA) for 24 h before the experiment.
(§6) The ratios of the drug combination were based on the ratio of their IC50 of each drug alone. Cell viability was determined by MTT assay, as described hereinabove. The drugs were added to the cells and incubated for 72 h.

T47D cells = experiment: Median-effect drug interaction, Hoechst viability, 72 h; type: cell-based, human
Procedure: as §6
(§7) Drug interaction in adherent cells was evaluated as above except that the viability was determined by Hoechst assay.

[1] = test system: NCI-N87 gastric carcinoma cells; experiment: as above; type: cell-based, human; settings: Homo sapiens
Procedure: as §6, §7

MDA-231 cells = experiment: as above; type: cell-based, human; settings: Homo sapiens
Procedure: as §6, §7

VEGF = VEGF immunohistochemistry in tumor and heart of xenograft mice; type: in vivo; settings: FIG. 4F
Procedure: (§8) The pro-angiogenic factors basic fibroblast growth factor (bFGF) and vascular endothelial growth factor (VEGF) are potent angiogenic stimulators. The expression of bFGF in the tumor and in the heart was evaluated by Western blot and qRT-PCR analyses and expression of VEGF by IHC.

[2] = test system: U251 human glioblastoma xenograft; experiment: Glioblastoma xenograft model (survival, body weight, tumor volume, tumor weight, Ki-67)
Procedure: Xenograft of glioblastoma: 8- to 10-week-old male Hsd athymic FOXN (Harlan, Jerusalem, Israel) were inoculated sc in the flanks with 5×10^6 U251 cells. Tumor length (L) and width (W) were measured with a caliper twice weekly. Tumor volumes were calculated according to the formula: (L×W2)/2. When the tumor was established (volume of 50-100 mm^3) the mice were randomly divided into six groups treated with: vehicle control (saline); ip Dox 4 mg/kg once weekly; po AN446 25 mg/kg thrice a week; po AN7 50 mg/kg thrice a week; combination of AN446+Dox (4 mg/kg ip Dox once a week and 25 mg/kg po AN446 thrice a week); AN7+Dox (4 mg/kg ip Dox once a week and 50 mg/kg po AN7 thrice weekly). Untreated, non-bearing tumor naive mice were maintained under the same conditions. The experiment was terminated after 25 treatment days, the mice were sacrificed under CO2 and their tumors and hearts were removed, weighed and divided into parts dedicated for immunohistochemistry (IHC) and the rest were frozen (−80° C.) for Western blot and Quantitative PCR (qRT-PCR) analyses.
Inactivation of avidin-biotin nonspecific binding was prevented by a blocking kit, according to the manufacturer's protocol (Vector Laboratories). […] The secondary antibody was biotin conjugated goat anti-rabbit or anti-mouse IgG. Slides were then stained with the ABC peroxidase system, developed with diaminobenzidine (DAB) (Vector Laboratories) and counterstained with hematoxylin (Bio-Optica, Milano, Italy). The slides were examined using an Olympus BX 52 light microscope, and images were taken with an Olympus DP50 digital camera system.
Mice were implanted subcutaneously with U251 cells and when the tumors reached 50-100 mm^3 treatments were initiated. Survival was evaluated by the Kaplan-Meier end-product analysis, where treatment failure (the experimental end points) was a loss of ˜20% body weight, or a tumor volume of >1 cm^3.

HUT-78 CTCL cells = experiment: Median-effect drug interaction, MTT viability, 72 h; type: cell-based, human
Procedure: as §5, §6

[3] = test system: murine mammary carcinoma 4T1; experiment: FACS viability, annexin V-FITC / PI; type: cell-based; settings: AN446 24 h; 200 nM Dox 5 h; combination compared to Dox alone; FIG. 1C
Procedure: (§9) Cell viability by flow cytometry analysis (FACS) analysis was determined using the Mebcyto apoptosis kit (MBL-Japan). The cell lines 4T1, U251 (2×10^5 cells/well), astrocytes and the cardiomyoblastic cell line H9C2 (5×10^5 cells/well) were seeded in six-well plates. Following treatment they were trypsinized, washed with PBS, resuspended in […] of binding buffer and double-stained with annexin V-FITC and propidium iodide (PI) according to the manufacturer's instructions. The stained cells were subjected to FACS analyses (Calibur cytometer, Becton Dickinson) where 30,000 cells were allowed to flow for each determination point and the percentage of cells in each state (viability or death) was defined by their distribution in fluorescence dot-plots using WinMdi 2.8 software (Scripps Research Institute, La-Jolla, USA).
(§10) The apoptotic effect of AN446, Dox and their combination was evaluated in U251 and 4T1 cancer cells, and in the non-cancerous rat cardiomyoblast cell line (H9C2) and in primary rat astrocytes, using procedures previously described for AN7 [Tarasenko et al., Invest New Drugs 2012, 30:130-143].

[4] = test system: U251 MG human glioma cells; experiment: FACS viability, annexin V-FITC / PI; type: cell-based; settings: AN446 24 h; 200 nM Dox 5 h; combination compared to Dox alone; FIG. 1C
Procedure: as §9, §10

bFGF = bFGF protein and mRNA in tumor and heart of xenograft mice (Western blot, qRT-PCR); type: in vivo; settings: single agent
Procedure: as §2, §3, §4, §8

`COc1cccc2c1C(=O)c1c(O)c3c(c(O)c1C2=O)C[C@@](O)(C(=O)CO)C[C@@H]3O[C@H]1C[C@H](N)[C@H](O)[C@H](C)O1` [Dox, Doxorubicin hydrochloride] was tested, and the “fibrosis in the heart” value (fibrous collagen; heart, FIGS. 8A-8C) was “induced fibrosis”, the “fibrosis in the kidneys” value (fibrous collagen; kidneys, FIG. 8A) was “induced fibrosis” and the “fibrosis in the tumor” value (fibrous collagen; tumor, FIG. 8A) was “reduced fibrosis”. The “HO-1 mRNA in the heart” value (HO-1; heart) was “decreased HO-1 mRNA”, the “HO-1 expression in the heart (decrease)” value (HO-1; heart, FIGS. 4D, 4E) was roughly 5 fold and the “tumor HO-1 protein expression (decrease)” value (HO-1; tumor, FIGS. 4A, 4B) was “unchanged”. For the same compound, the “serum levels of TNF-α” value (TNF-α) was “increased serum levels of TNF-α”, the “c-Myc protein expression in the hearts” value (c-Myc; heart, FIG. 5B) was “repressed” and the “c-Myc protein expression in tumors” value (c-Myc; tumor, FIG. 5A) was “unaffected”. For the same compound, the IC50 (PBL; Dox in combination with AN446, read-out: Dox com IC50) was 0.015 µM, the IC50 (PBL; Dox in combination with SAHA, read-out: Dox com IC50) was 0.02 µM and the IC50 (PBL; single agent, read-out: Dox IC50) was 0.07 µM. It also gave an IC50 (T47D cells; Homo sapiens, Dox in combination with AN446, read-out: Dox com IC50) of 0.0076 µM, an IC50 (T47D cells; Homo sapiens, Dox in combination with SAHA, read-out: Dox com IC50) of 0.0052 µM and an IC50 (T47D cells; Homo sapiens, single agent, read-out: Dox IC50) of 0.019 µM. It also gave an IC50 (T47D cells; single agent, hydrochloride, read-out: Dox IC50) of 0.0191 µM, an IC50 ([1]; NCI-N87, NCI-N87, Dox in combination with AN446, read-out: Dox com IC50) of 0.0085 ± 0.001 µM and an IC50 ([1]; NCI-N87, NCI-N87, single agent, read-out: Dox IC50) of 0.03 ± 0.0013 µM. The IC50 (MDA-231 cells; MDA-MB-231, MDA-231, Dox in combination with AN446, read-out: Dox com IC50) was 0.0053 µM, the IC50 (MDA-231 cells; MDA-MB-231, MDA-231, Dox in combination with SAHA, read-out: Dox com IC50) was 0.0043 µM and the IC50 (MDA-231 cells; MDA-MB-231, MDA-231, single agent, read-out: Dox IC50) was 0.0102 µM. The “VEGF expression in the heart” value (VEGF) was “reduced”, the body weight ([2]; Dox 4 mg/kg ip once a week, from day 13) was “drastic decrease in body weight” and the treatment failure ([2]; Dox 4 mg/kg ip once a week, weight loss contributing) was 60%. For the same compound, the “Ki-67 positive cells in tumors” value ([2]; single agent vs vehicle, FIGS. 3E, 3F) was “considerably more Ki-67 positive cells were detected in tumors of the vehicle-treated mice”, the “survival of mice until end of experiment (day 25)” value ([2]; single agent: AN446 25 mg/kg or AN7 50 mg/kg po thrice weekly, Dox 4 mg/kg ip once a week, FIG. 3A) was 40% and the IC50 (HUT-78 CTCL cells; HUT-78, single agent, hydrochloride, read-out: Dox IC50) was 0.031 µM. The IC50 (HUT-78 CTCL cells; Homo sapiens, HuT78, HUT-78, Dox in combination with AN446, read-out: Dox com IC50) was 0.011 µM, the IC50 (HUT-78 CTCL cells; Homo sapiens, HuT78, HUT-78, Dox in combination with SAHA, read-out: Dox com IC50) was 0.012 µM and the IC50 (HUT-78 CTCL cells; Homo sapiens, HuT78, HUT-78, single agent, read-out: Dox IC50) was 0.0308 µM. The “viability / mortality of 4T1 cells” value [3] was “significantly reduced the viability”, the “viability / mortality of U251 cells” value [4] was “significantly reduced the viability” and the “expression of mouse bFGF protein in the heart” value (bFGF; heart, FIG. 4D) was “decreased significantly”. The “bFGF mRNA in the tumor” value (bFGF; tumor, FIG. 6) was “significantly reduced the bFGF mRNA” and the “expression of bFGF in tumors” value (bFGF; tumor, FIGS. 4A, 4B) was “decreased significantly”.
